# Experimental data from ChEMBL document CHEMBL1201862, “PubChem BioAssay data set” (2004).
# Activity calls are given as the source filed them.
# Columns and labels:
# [1] = Fluorescence-based cell-based high throughput dose response assay for inhibitors of the interaction of nucleotide-binding oligomerization domain containing 2 (NOD2) and the receptor-interacting serine-threonine kinase 2 (RIPK2).; assay type: functional, Homo sapiens
# [2] = biological target: Protein disulfide-isomerase (Homo sapiens, UniProt P07237); test: PDI inhibitors, insulin aggregation turbidity, dose response, biochemical, absorbance, cherry-picked samples (AID 602350); assay type: functional
# Sequence of Protein disulfide-isomerase (P07237 whole entry): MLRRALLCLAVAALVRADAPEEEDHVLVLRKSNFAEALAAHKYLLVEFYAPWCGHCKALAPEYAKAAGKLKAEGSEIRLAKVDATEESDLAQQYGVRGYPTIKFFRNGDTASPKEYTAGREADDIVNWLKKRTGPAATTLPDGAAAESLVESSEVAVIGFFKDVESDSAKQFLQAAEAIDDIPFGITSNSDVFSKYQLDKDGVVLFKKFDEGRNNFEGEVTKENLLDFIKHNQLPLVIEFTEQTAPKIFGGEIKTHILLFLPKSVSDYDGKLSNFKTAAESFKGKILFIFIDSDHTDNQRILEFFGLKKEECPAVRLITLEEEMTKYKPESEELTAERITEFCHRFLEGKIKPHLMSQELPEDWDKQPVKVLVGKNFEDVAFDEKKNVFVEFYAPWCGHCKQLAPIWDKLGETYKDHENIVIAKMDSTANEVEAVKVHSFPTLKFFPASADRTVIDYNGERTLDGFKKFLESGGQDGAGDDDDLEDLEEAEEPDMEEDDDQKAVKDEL
# Vero = test: Vero cell toxicity, dose response, cytotoxicity control, plate reader, cherry-pick samples (AID 687020); assay type: functional, cell-based; details: Chlorocebus sabaeus
# [3] = biological target: T1, Small ubiquitin-related modifier 1 (Homo sapiens, UniProt P63165); test: inhibitors of SUMO1 partner interactions, dose response, biochemical, FRET (AID 624383); assay type: functional; details: read-out: IC50_Mean
# T1 sequence (P63165 whole entry): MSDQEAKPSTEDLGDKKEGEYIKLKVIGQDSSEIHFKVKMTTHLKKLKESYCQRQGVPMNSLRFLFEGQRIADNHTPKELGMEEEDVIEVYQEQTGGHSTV
# [4] = biological target: T2, Rac GTPase-activating protein 1 (Homo sapiens, UniProt Q9H0H5); test: MgcRacGAP GTPase-activating activity inhibitors, confirmation, biochemical, ADP Hunter fluorescence, primary and confirmatory (AID 624330); assay type: functional
# T2 sequence (Q9H0H5 whole entry): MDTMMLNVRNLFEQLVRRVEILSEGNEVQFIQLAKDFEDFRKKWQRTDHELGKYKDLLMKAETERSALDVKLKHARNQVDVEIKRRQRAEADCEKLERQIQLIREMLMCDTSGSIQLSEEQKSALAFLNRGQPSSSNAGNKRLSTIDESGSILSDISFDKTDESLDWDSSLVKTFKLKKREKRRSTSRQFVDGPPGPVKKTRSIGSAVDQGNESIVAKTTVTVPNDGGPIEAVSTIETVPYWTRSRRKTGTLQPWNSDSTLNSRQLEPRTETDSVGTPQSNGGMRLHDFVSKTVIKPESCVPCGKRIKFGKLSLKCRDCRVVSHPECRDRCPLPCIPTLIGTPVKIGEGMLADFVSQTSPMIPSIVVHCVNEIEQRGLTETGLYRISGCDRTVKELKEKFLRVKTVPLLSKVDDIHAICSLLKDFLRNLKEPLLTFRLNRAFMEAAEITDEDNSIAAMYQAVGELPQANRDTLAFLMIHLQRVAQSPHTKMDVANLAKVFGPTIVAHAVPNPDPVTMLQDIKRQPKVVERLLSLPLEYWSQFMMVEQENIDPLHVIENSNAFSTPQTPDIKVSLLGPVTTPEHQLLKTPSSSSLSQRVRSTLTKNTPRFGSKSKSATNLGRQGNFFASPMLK
# [5] = biological target: T1, Small ubiquitin-related modifier 1; test: inhibitors of SUMO1 peptide binding, dose response, biochemical, fluorescence polarization, uHTS hits (AID 624382); assay type: functional; details: read-out: IC50_Mean
# [6] = biological target: DNA (cytosine-5)-methyltransferase 1 (Homo sapiens, UniProt P26358); test: DNMT1 methyltransferase inhibitors, confirmation, biochemical, fluorescent molecular beacon (AID 602386); assay type: functional
# Sequence of DNA (cytosine-5)-methyltransferase 1 (P26358 whole entry): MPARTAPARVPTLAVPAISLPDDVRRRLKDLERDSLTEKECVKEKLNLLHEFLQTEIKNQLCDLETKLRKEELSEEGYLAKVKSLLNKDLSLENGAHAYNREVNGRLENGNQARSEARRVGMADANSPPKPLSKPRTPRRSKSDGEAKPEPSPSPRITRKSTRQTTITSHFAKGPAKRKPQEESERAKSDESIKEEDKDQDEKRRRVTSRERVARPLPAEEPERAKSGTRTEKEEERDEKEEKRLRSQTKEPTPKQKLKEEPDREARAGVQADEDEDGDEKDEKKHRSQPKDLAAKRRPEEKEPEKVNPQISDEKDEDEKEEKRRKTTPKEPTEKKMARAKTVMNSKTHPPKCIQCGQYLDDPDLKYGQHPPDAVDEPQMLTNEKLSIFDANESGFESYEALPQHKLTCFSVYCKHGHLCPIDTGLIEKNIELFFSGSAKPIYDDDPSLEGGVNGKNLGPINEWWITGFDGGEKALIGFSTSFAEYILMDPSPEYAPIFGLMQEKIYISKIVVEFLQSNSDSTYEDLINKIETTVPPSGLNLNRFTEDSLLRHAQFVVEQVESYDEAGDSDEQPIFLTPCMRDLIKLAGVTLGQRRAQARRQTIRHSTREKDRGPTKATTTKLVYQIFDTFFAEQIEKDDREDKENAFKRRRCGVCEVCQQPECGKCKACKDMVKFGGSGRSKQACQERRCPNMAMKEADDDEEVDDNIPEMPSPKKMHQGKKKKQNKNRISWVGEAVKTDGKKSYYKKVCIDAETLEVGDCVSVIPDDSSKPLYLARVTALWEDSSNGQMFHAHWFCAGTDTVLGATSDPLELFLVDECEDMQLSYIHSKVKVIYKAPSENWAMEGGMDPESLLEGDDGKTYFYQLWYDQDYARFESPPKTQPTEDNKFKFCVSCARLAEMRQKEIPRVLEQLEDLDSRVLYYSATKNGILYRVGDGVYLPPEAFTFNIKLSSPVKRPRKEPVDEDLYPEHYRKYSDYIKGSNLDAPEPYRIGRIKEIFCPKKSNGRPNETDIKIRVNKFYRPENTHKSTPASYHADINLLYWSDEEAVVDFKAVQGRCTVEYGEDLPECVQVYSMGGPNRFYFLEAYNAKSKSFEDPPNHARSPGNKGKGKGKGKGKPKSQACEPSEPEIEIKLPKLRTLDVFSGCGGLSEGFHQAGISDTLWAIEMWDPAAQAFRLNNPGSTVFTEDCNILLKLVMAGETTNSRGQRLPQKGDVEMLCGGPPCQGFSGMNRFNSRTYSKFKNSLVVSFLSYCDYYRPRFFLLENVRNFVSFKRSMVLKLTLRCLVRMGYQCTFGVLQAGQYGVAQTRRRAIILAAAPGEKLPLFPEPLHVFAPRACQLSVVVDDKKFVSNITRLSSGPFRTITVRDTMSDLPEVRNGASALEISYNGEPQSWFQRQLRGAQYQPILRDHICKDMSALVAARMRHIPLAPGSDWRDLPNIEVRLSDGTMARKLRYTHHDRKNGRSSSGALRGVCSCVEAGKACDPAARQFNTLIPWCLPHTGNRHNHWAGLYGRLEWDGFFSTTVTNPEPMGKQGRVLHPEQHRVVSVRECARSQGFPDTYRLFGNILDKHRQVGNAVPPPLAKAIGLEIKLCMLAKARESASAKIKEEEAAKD
# Beta-galactosidase = Beta-galactosidase (Escherichia coli, UniProt Q8VNN2); test: beta-galactosidase enzyme inhibitors and activators, dose response, artefact control for CCR6 antagonist project, biochemical, E. coli enzyme, set 3 (AID 504712); assay type: functional
# Sequence of Beta-galactosidase (Q8VNN2 whole entry): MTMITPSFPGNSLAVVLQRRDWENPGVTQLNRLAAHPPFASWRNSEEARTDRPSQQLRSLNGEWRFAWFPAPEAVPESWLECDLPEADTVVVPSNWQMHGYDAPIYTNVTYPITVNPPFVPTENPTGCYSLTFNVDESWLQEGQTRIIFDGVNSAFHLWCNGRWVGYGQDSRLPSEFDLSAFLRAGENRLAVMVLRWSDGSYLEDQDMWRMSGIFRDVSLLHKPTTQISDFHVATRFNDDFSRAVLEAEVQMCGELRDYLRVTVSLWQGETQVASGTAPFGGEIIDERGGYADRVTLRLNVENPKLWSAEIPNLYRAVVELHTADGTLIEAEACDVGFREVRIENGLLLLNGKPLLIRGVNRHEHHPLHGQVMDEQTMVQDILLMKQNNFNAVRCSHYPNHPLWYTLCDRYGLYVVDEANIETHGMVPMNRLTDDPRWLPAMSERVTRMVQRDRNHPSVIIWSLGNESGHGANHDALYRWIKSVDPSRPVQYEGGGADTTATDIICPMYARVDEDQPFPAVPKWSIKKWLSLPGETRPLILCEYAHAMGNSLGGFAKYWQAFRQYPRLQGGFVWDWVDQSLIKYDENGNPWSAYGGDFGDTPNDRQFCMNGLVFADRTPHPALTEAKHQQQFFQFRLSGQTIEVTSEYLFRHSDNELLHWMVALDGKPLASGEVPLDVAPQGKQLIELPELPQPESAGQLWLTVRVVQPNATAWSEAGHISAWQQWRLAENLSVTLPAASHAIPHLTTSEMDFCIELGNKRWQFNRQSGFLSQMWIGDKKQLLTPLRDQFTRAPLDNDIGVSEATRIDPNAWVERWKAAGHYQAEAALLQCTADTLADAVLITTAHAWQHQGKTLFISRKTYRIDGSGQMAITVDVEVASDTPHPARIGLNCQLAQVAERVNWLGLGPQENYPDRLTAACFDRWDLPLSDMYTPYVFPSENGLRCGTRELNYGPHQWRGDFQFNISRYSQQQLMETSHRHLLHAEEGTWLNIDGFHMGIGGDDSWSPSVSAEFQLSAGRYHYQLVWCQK
# [7] = biological target: T3, Small ubiquitin-related modifier 2 (Homo sapiens, UniProt P61956); test: SUMO2–SIM peptide binding inhibitors, dose response, selectivity assay for SUMO1 interaction inhibitor project, biochemical, fluorescence polarization, uHTS hits (AID 624385); assay type: functional; details: read-out: IC50_Mean
# T3 sequence (P61956 whole entry, the tested form may be a part): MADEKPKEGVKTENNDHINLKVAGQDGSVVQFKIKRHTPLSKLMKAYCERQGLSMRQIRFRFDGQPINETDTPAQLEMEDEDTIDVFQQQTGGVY
# [8] = biological target: T4, Carboxy-terminal domain RNA polymerase II polypeptide A small phosphatase 1 (Homo sapiens, UniProt Q9GZU7); test: inhibitors of CTDSP1, concentration-response testing, biochemical assay, absorbance-based, actives from ultra-high-throughput screening (AID 540297); assay type: functional
# T4 sequence (Q9GZU7 whole entry): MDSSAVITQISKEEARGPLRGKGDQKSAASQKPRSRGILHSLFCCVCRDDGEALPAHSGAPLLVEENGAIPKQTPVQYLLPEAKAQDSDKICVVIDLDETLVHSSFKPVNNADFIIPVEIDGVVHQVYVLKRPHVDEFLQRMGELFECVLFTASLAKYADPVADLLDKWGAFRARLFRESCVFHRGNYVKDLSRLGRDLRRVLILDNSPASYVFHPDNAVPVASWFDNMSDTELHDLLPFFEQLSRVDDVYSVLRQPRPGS
# [9] = biological target: T3, Small ubiquitin-related modifier 2; test: inhibitors of SUMO2 protein-protein interaction, dose response, selectivity assay for SUMO1 interaction inhibitor project, biochemical, FRET, human SUMO2, uHTS hits (AID 624384); assay type: functional; details: read-out: IC50_Mean
# [10] = HeLa cell cytotoxicity, dose response, cytotoxicity control for MgcRacGAP inhibitor project (AID 624300); assay type: functional
# [11] = biological target: T5, Probable nicotinate-nucleotide adenylyltransferase (Staphylococcus aureus (strain N315), UniProt P65502); assay type: functional, Staphylococcus aureus subsp. aureus N315; details: read-out: IC50_Mean;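 for IC50 Mean: confirmatory dose-response retesting of NadD inhibitor hits first found in an ultra-high-throughput screen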
# T5 sequence (P65502 whole entry): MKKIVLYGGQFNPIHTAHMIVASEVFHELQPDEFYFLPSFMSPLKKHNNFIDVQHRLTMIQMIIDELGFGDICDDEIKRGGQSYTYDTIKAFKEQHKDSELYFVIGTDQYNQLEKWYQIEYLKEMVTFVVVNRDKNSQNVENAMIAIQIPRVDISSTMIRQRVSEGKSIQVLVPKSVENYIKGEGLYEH
# [12] = biological target: T5, Probable nicotinate-nucleotide adenylyltransferase; assay type: functional, Staphylococcus aureus subsp. aureus N315
# Protein Wnt-3a = Protein Wnt-3a (Mus musculus, UniProt P27467); test: Wnt3a-driven reporter signaling inhibition, dose response, selectivity assay for Gli-SUFU antagonist project, Wnt-LIGHT cells, luminescence (AID 651570); assay type: functional; details: read-out: IC50_Mean;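 note: Wnt-LIGHT reporter cells stimulated with conditioned medium from Wnt3a-producing cells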
# Sequence of Protein Wnt-3a (P27467 whole entry): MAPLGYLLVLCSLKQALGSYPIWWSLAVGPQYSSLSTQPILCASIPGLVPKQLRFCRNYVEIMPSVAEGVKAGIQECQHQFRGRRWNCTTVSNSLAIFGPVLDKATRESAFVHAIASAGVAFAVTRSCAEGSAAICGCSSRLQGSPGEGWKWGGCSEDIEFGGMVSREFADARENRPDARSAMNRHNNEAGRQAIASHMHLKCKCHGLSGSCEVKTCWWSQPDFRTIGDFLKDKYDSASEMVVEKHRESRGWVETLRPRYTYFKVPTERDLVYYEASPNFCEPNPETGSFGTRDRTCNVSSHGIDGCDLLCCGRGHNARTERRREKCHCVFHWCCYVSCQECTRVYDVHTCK
# [13] = biological target: T6, Alkaline phosphatase, tissue-nonspecific isozyme (Homo sapiens, UniProt P05186); test: TNAP enzyme inhibition by screening hits, dose response, selectivity assay for mouse IAP inhibitor project, biochemical, human TNAP, uHTS hits (AID 488906); assay type: functional
# T6 sequence (P05186 whole entry): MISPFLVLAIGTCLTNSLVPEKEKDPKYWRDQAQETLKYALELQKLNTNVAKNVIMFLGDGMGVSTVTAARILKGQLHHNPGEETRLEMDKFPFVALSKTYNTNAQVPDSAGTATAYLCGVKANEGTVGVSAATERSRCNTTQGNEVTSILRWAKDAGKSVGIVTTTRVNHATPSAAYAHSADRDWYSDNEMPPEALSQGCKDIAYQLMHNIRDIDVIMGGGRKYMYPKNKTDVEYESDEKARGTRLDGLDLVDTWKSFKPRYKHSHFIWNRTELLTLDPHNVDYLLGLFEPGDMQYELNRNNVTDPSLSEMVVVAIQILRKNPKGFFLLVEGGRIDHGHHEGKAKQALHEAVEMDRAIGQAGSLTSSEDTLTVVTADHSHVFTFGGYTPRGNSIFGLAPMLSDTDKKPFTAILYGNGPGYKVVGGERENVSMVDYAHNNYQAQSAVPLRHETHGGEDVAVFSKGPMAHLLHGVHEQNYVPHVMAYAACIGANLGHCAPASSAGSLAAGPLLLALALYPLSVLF
# [14] = biological target: Intestinal-type alkaline phosphatase (Mus musculus, UniProt P24822); test: PubChem AID 488785; assay type: functional
# [15] = biological target: Intestinal-type alkaline phosphatase (Homo sapiens, UniProt P09923); test: inhibition of human intestinal alkaline phosphatase – biochemical, dose response (AID 488876); assay type: functional
# Sequence of Intestinal-type alkaline phosphatase (Homo sapiens, UniProt P09923) (P09923 whole entry): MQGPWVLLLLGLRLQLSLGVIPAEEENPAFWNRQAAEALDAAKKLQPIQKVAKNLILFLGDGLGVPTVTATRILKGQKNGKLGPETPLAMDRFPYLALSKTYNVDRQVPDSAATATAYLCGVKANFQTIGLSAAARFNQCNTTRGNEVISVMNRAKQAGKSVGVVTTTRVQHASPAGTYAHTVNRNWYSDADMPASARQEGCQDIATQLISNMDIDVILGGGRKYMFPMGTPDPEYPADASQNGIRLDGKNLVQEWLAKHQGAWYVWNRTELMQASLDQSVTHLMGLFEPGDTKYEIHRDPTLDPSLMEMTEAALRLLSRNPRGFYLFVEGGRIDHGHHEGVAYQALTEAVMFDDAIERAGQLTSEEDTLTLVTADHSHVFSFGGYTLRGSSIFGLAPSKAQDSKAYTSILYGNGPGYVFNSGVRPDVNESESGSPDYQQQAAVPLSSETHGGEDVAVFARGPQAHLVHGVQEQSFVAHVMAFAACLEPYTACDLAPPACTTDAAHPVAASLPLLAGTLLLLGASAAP
# [16] = NIH-3T3 fibroblast cytotoxicity, dose response, cytotoxicity control, cell-based, fluorescence, Alamar Blue, secondary assay (AID 2327); assay type: functional;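 note: NIH-3T3 mouse fibroblasts cultured with fluconazole at 8 µg/mL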
# BJ [17] = test: cells; assay type: functional, cell-based; details: Homo sapiens
# [18] = inhibitors of PGC1a acetylation in cells, dose response, cell-based, cherry-picked samples (AID 720514); assay type: functional;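 note: potency may reflect raised or lowered acetylation signal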
# INS1 = test: beta cell apoptosis inhibitors, cytokine rescue, dose response, luminescence, retest (AID 449756); assay type: functional, cell-based; details: Rattus norvegicus;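 note: cell death triggered by IL-1 beta plus TNF-alpha plus IFN-gamma mixture; protective hits raise ATP signal compared with cytokine alone wells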
# [19] = microbe, parasite or virus in culture; assay type: functional; details: Mycobacterium tuberculosis
# [20] = inhibitors of SNCA 5'UTR-driven reporter translation, confirmation, H4 neuroglioma cells, luminescence (AID 1988); assay type: functional, cell-based
# BJ [21] = test: cytotoxicity toward BJ-TERT-LT-ST fibroblasts, dose response, cell-based, RAS-independent, luminescence (AID 1935); assay type: functional; details: Homo sapiens;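 note: BJ fibroblasts immortalized with TERT plus LT and ST oncogenes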
# BJ [22] = test: cytotoxicity toward BJ-TERT fibroblasts, dose response, cell-based, RAS-independent, luminescence (AID 1933); assay type: functional; details: Homo sapiens
# [23] = C. albicans growth with fluconazole, confirmation, fluorescence, retest (AID 2467); assay type: functional, cell-based
# [24] = inhibitors of firefly luciferase expression or activity, dose response, H4 neuroglioma cells, luminescence (AID 1990); assay type: functional, cell-based
# [25] = Luminescence Cell-Based Dose Response HTS to Identify Inhibitors of 5'UTR Stem-Loop Driven Prion Protein mRNA Translation in H4 Neuroglioblastoma Cells. [Related pubchem assays: 1827 (Project Summary), 1813 (Primary HTS)]; assay type: functional
# [26] = cytotoxicity toward DRD oncogenic fibroblasts, dose response, cell-based, non-viral oncogenic, luminescence (AID 1934); assay type: functional; details: Homo sapiens
# BJ [27] = test: cytotoxicity toward Ras-transformed BJeLR fibroblasts, dose response, cell-based, alamar blue fluorescence, cherrypicked samples (AID 2631); assay type: functional; details: Homo sapiens;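 note: confirmatory dose-response assay in RAS-dependent BJ fibroblasts engineered with TERT, LT and ST, with cytotoxicity read by fluorescence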
# [28] = biological target: T7, Ubiquitin-conjugating enzyme E2 N (Homo sapiens, UniProt P61088); assay type: functional;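 note: Dose-response confirmation in a TR-FRET assay detecting UBC13-driven polyubiquitin chain formation, inhibition measured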
# T7 sequence (P61088 whole entry): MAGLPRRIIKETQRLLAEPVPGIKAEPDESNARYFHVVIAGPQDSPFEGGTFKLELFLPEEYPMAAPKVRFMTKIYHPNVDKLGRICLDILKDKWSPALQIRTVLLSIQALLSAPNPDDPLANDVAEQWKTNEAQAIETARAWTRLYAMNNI
# Beta Lactamase [29] = biological target: T8, Beta Lactamase (Pseudomonas aeruginosa, UniProt Q932Y6); test: VIM-2 inhibitor FRET-based artefact check, dose response, artefact control for selective VIM-2 inhibitor project, biochemical, FRET readout, CCF2 substrate (AID 1926)
# T8 sequence (Q932Y6 whole entry): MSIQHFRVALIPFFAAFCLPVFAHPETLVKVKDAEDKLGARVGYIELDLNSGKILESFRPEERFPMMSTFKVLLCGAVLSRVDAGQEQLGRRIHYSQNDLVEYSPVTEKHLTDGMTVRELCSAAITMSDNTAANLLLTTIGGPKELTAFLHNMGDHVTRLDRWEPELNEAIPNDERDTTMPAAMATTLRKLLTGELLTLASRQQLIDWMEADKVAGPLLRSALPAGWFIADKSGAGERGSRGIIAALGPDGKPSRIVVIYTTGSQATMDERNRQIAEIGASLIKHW
# Beta Lactamase [30] = biological target: T8, Beta Lactamase; test: VIM-2 metallo-beta-lactamase inhibitor potency, dose response, biochemical, epi-absorbance readout, selective inhibitors (AID 1919)
# Beta-lactamase [31] = biological target: Beta-lactamase (Salmonella choleraesuis (strain SC-B67), UniProt Q5J463); test: Epi-absorbance-based counterscreen for selective VIM-2 inhibitors: dose response biochemical high throughput screening assay to identify inhibitors of TEM-1 serine-beta-lactamase.
# Beta-lactamase [32] = biological target: T9, Beta-lactamase (Pseudomonas aeruginosa, UniProt Q79MP6); test: IMP-1 metallo-beta-lactamase inhibitors, dose response, selectivity assay for VIM-2 inhibitor project, biochemical, epi-absorbance (AID 1920)
# T9 sequence (Q79MP6 whole entry): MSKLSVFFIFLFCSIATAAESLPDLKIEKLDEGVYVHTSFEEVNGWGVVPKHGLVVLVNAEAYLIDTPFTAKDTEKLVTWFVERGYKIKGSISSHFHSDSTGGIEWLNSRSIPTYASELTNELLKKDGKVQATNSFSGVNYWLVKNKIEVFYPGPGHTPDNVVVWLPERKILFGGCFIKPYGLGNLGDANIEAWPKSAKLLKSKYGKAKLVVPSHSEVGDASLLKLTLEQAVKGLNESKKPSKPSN
# Beta-lactamase [33] = biological target: T9, Beta-lactamase; test: […] counterscreen for selective VIM-2 inhibitors: dose response biochemical high throughput screening assay to identify inhibitors of IMP-1 metallo-beta-lactamase.
smiles,measurement,setting,value
CC1=CC2OC3CC4OC(=O)C=CC=CC(=O)OCCC(C)C(O)C(=O)OCC2(CC1O)C4(C)C31CO1 (stereo not given),IC50,[1],49.7 µM (inactive)
O=C1C[C@@H](c2ccc(O[C@@H]3O[C@H](CO)[C@@H](O)[C@H](O)[C@H]3O)cc2)Oc2cc(O)ccc21 [LIQUIRITIN],AC50,[2],15.6 µM (active)
CCn1c(=O)n(CC)c2cc(N3CCCC3)c(NC(=O)c3ccc(C)cc3)cc21,AC50,Vero,32.2 µM (active)
C=CCOc1ccc(C=NNc2ccc(S(=O)(=O)Nc3ccccc3C(=O)O)cc2[N+](=O)[O-])cc1OC,IC50,[3],51.2 µM (inactive)
same,IC50,[4],65.6 µM (active)
same,IC50,[5],14 µM (active)
same,IC50,[6],5.32 µM (active)
same,IC50,Beta-galactosidase,> 66.6 µM (inactive)
same,IC50,[7],17.1 µM (active)
same,IC50,[8],2 µM (active)
same,IC50,[9],> 66 µM (inactive)
same,CC50,[10],100 µM (active)
COc1ccc(Br)cc1/C=N/Nc1ccc(S(=O)(=O)Nc2ccccc2C(=O)O)cc1[N+](=O)[O-],IC50,[3],50.6 µM (inactive)
same,IC50,[5],4.47 µM (active)
same,IC50,[6],3.39 µM (active)
same,IC50,[7],2.52 µM (active)
same,IC50,[11],19.9 µM (active)
same,IC50,[12],3.24 µM (active)
same,IC50,[9],45.4 µM (inactive)
O=C(C[C@H]1C/C=C\C[C@@H](NC(=O)OCC2c3ccccc3-c3ccccc32)C(=O)O[C@@H](c2ccccc2)CNC1=O)N[C@H](CO)Cc1ccccc1,IC50,Protein Wnt-3a,20.8 µM (inactive)
O=C(c1c(O)cc(O)cc1O)C1c2c(cc(O)c3c2O[C@H](c2ccc(O)cc2)[C@@H](O)C3)OC1c1ccc(O)cc1 (stereo not given in full) [DIHYDRODAPHNODORIN B],IC50,[13],19.7 µM (active)
same,IC50,[14],7.21 µM (active)
same,IC50,[15],18.3 µM (active)
same,AC50,[2],19.5 µM (active)
CNC[C@@H](Cc1ccccc1)NC[C@@H](CC1CCCCC1)NCCCc1ccccc1,EC50,[16],4.94 µM (inconclusive)
same,EC50,BJ [17],5.13 µM (inconclusive)
same,AC50,[18],5.06 µM (active)
same,AC50,INS1,6.49 µM (active)
same,CC50,[19],5.76 µM (active)
same,EC50,[20],4.29 µM (active)
same,EC50,BJ [21],5.72 µM (inconclusive)
same,EC50,BJ [22],5 µM (active)
same,EC50,[23],> 38 µM (not active)
same,EC50,[24],7.68 µM (active)
same,EC50,[25],> 120 µM (not active)
same,EC50,[26],5.08 µM (active)
same,EC50,BJ [27],0.532 µM (inconclusive)
same,IC50,[28],> 20 µM (inactive)
Cc1cc(F)cc(-c2cc(C(=O)NCC3CCCCC3)[nH]n2)c1,AC50,Vero,22.6 µM (active)
COc1cc(OC)c(OC)cc1/C=N/NC(=O)CC1C(=O)NN=C1C (stereo not given),IC50,Beta Lactamase [29],1.46 µM (active)
same,IC50,Beta Lactamase [30],4.22 µM (active)
same,IC50,Beta-lactamase [31],> 59.6 µM (inactive)
same,IC50,Beta-lactamase [32],> 59.6 µM (inactive)
same,IC50,Beta-lactamase [33],> 59.6 µM (inactive)
O=C(O)C1C(c2ccccc2)C(C(=O)Oc2ccc(O)cc2)C1c1ccccc1 (stereo not given),AC50,[2],14.6 µM (active)
